Experimental data reported in patent US7754462B2, “Enzyme catalysis in the presence of ionic liquids” (priority 2000, dated 2010).

How the values were obtained:
Type in all cases: biochemical
[1] = target: T1, Lipase from Candida antarctica (Type B) (Moesziomyces antarcticus, UniProt P41365); experiment: Enantioselective acylation of R,S-1-phenylethanol in ionic liquids; details: 24° C., 3-4 days
Experimental: (§1) 4.4 ml of an ionic liquid in accordance with Table 3 or tert-butylmethyl ether are mixed with 122 μl of vinyl acetate and 54 μl of 1-phenyl ethanol so that a substrate solution with approximately 0.1 mol/l of 1-phenyl ethanol and 0.3 mol/l of vinyl acetate is obtained. Each 1 mg of lyophilised lipase (>120 U/mg) is mixed with 0.4 ml of substrate solution, thoroughly mixed and incubated at 24° C. for 3-4 days, shaking slightly.
(§2) This hexane/isopropanol extract is used to determine the concentrations and enantiomer ratios of 1-phenyl ethanol and 1-phenylethyl acetate using HPLC. The conversion and the enantiomer excess were calculated from these concentrations (see Table 3).

[2] = tested on: Lipase from Alcaligines sp.; experiment: Enantioselective acylation of R,S-1-phenyl ethanol in ionic liquids
Experimental: as §1, §2

[3] = tested on: Lipase from Candida antarctica (Type A); experiment: as above
Experimental: as §1, §2

[4] = tested on: Lipase from Pseudomonas sp.; experiment: as above; set-up: key: (+) good to better; (±) the same
Experimental: as §1
as §2, with “For further processing 100 μl of the reaction formulation is mixed with 1 ml of n-hexane/Isopropanol (97.5/2.5 v/v) and mixed thoroughly. This” for “This”
Each 3 mg of lyophilised lipase (400 U/mg) is mixed with 0.4 ml of a substrate solution as in Example 3. The further procedure corresponds to that described in Example 3.

[5] = target: T2, Formate dehydrogenase from Candida boidinii (FDH) (Candida boidinii, UniProt O13437); experiment: NAD reduction by formate dehydrogenase; enzyme activity with buffer replaced by ionic liquid; set-up: key: (+) good to better; (±) the same; details: 25° C., pH 7
T2 sequence (O13437 1-364): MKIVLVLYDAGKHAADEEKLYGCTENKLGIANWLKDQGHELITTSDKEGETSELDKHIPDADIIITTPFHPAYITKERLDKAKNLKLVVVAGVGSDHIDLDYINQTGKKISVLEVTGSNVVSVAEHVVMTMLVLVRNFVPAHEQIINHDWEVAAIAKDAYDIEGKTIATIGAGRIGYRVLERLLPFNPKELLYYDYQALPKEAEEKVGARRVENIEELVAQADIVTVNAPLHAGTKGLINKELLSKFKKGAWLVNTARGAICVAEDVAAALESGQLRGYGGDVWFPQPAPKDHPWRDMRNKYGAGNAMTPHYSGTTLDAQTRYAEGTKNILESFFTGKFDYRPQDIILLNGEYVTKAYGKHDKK
Experimental: The FDH-catalysed oxidation of formic acid to carbon dioxide by the reduction of nicotinamide adenine dinucleotide (NAD^+ to NADH+H^+) is used as the test reaction to determine the enzyme activity. In the enzyme assay the increase in NADH with time at 25° C. is detected photometrically at a wavelength of 340 nm.
Composition of the enzyme assay: 1 ml buffer solution (50 mM triethanolamine hydrochloride, 1 mM dithiothreitol, hydrochloric acid) pH 7 is mixed with 0.1 ml of aqueous sodium formate solution (2.4 M) and 0.1 ml of enzyme solution (0.7 mg/ml, 8.4 U). The enzyme solution already contains the cofactor NAD (6 mM).

[6] = target: T1, Lipase from Candida antarctica (Type B); experiment: Recycling of the lipase in ionic liquid by distillation; details: 40 min at 40° C.; distillation 85° C., 0.06 mbar
Experimental: 600 mg of lyophilised lipase (approx. 10 U/mg) is mixed with 4 ml of ionic liquid (BMIm^+(CF3SO2)2N^−), 1.2 ml of vinyl acetate and 0.7 ml 1-phenyl ethanol and thoroughly mixed. The reaction mixture is incubated for 40 min at 40° C.
The non-converted educts and the reaction product […] is then distilled off (85° C., 0.06 mbar).
The enzyme/ionic liquid mixture is cooled, re-mixed with 1.2 ml of vinyl acetate and 0.7 ml of 1-phenyl ethanol and again incubated for 40 min at 40° C.

T1 sequence (P41365 26-342): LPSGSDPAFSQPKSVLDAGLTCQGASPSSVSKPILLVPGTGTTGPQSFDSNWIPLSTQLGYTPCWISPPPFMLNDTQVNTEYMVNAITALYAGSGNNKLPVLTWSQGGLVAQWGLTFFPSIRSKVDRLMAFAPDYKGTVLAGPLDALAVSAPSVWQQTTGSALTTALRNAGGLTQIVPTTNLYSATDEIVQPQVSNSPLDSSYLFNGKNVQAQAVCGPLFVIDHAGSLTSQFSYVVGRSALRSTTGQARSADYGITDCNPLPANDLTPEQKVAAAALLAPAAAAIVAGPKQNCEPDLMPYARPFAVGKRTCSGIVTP

| Molecule | Conversion compared to the standard reaction in tert-butylmethyl ether [1] | Enantiomer excess compared to the standard reaction in tert-butylmethyl ether [1] | Conversion compared to the standard reaction in tert-butylmethyl ether [2] | Enantiomer excess compared to the standard reaction in tert-butylmethyl ether [2] | Conversion compared to the standard reaction in tert-butylmethyl ether [3] | Enantiomer excess compared to the standard reaction in tert-butylmethyl ether [3] | Conversion compared to the standard reaction in tert-butylmethyl ether [4] | Enantiomer excess compared to the standard reaction in tert-butylmethyl ether [4] | enzyme activity compared with the standard reaction in the buffer solution ([5]; 25 vol % ionic liquid) | enzyme activity compared with the standard reaction in the buffer solution ([5]; 50 vol % ionic liquid) | enzyme activity compared with the standard reaction in the buffer solution ([5]; 75 vol % ionic liquid) | lipase activity on repeated incubation and distilling off [6] |
| --- | --- | --- | --- | --- | --- | --- | --- | --- | --- | --- | --- | --- |
| CCCCn1cc[n+](C)c1.O=S(=O)([O-])C(F)(F)F [BMIm^+ CF3SO3^−, Butyl-methyl-imidazolium-trifluoro methane sulphonate (=triflate)] | + | + | ± | + | + | + | + | + | – | – | – | – |
| CCCC[n+]1ccc(C)cc1.F[B-](F)(F)F [4-MBP^+ BF4^−, 4-methyl-butyl-pyridinium BF4^−] | + | + | ± | + | – | – | ± | + | – | – | – | – |
| Methyl-methyl-imidazolium-methyl sulphate [MMIm^+ MeSO4^−] | – | – | – | – | – | – | – | – | ± | + | + | – |
| CCCCCCCCC[n+]1ccn(C)c1.F[P-](F)(F)(F)(F)F [NMIm^+ PF6^−, Nonyl-methyl-imidazolium PF6^−] | ± | + | – | – | + | + | – | – | – | – | – | – |
| CCCCn1cc[n+](C)c1.O=S(=O)([N-]S(=O)(=O)C(F)(F)F)C(F)(F)F [BMIm^+ (CF3SO2)2N^−] | + | + | – | – | – | – | + | + | – | – | – | without the lipase activity diminishing |
| CCCCn1cc[n+](C)c1.F[P-](F)(F)(F)(F)F [BMIm^+ PF6^−, Butyl-methyl-imidazolium PF6^−] | – | – | ± | + | + | + | – | – | – | – | – | – |
| CCCCCCCCn1cc[n+](C)c1.F[B-](F)(F)F [OMIm^+ BF4^−, Octyl-methyl-imidazolium BF4^−] | + | + | ± | + | + | ± | – | – | – | – | – | – |
| CCCCn1cc[n+](C)c1.F[B-](F)(F)F [BMIm^+ BF4^−, Butyl-methyl-imidazolium BF4^−] | + | + | ± | + | ± | + | – | – | – | – | – | – |
| CCCCCCn1cc[n+](C)c1.F[B-](F)(F)F [HMIm^+ BF4^−, Hexyl-methyl-imidazolium BF4^−] | ± | + | ± | + | + | + | – | – | – | – | – | – |
